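Method: 48-hour compound exposure of cells in 96-well plates, five concentrations, linear interpolation of endpoints. GI50: concentration for 50% inhibition of growth. At the TGI there is no net growth.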
How the values were obtained:
Assay in all cases: growth of human tumour cells (NCI), 48 h
[1] = system: UACC-257 melanoma
[2] = system: HL-60(TB) leukemia
[3] = system: HT29 colon
[4] = system: SNB-19 CNS
[5] = system: U251 CNS
[6] = system: IGROV1 ovarian
[7] = system: OVCAR-3 ovarian
[8] = system: COLO 205 colon
[9] = system: NCI-H522 lung
[10] = system: NCI-H460 lung

Compound | TGI [1] [µM] | TGI [2] [µM] | TGI [3] [µM] | TGI [4] [µM] | TGI [5] [µM] | TGI [6] [µM] | TGI [7] [µM] | TGI [8] [µM] | TGI [9] [µM] | TGI [10] [µM] | GI50 [1] [µM] | GI50 [2] [µM] | GI50 [3] [µM] | GI50 [4] [µM] | GI50 [5] [µM] | GI50 [6] [µM] | GI50 [7] [µM] | GI50 [8] [µM] | GI50 [9] [µM] | GI50 [10] [µM]
O=C1/C(=C/c2ccc(O)cc2)Oc2ccccc21 | > 100 | 92.9 | > 100 | > 100 | > 100 | > 100 | > 100 | > 100 | 62 | > 100 |  |  |  |  |  |  |  |  |  | 
Cc1c(C2CCSc3ccccc3N2)sc2ccccc12 (stereo not given) | > 100 | > 100 | > 100 | > 100 | > 100 | > 100 | > 100 | > 100 | > 100 | > 100 |  |  |  |  |  |  |  |  |  | 
N#C/C(=C1\OC(N)=C(c2ccc(Cl)cc2)C1=O)c1ccc(Cl)cc1 | 29 | 44.4 | 39.5 | 39.6 | 29.1 | 38.3 | 28 | 32.8 | 24.6 | 34 |  |  |  |  |  |  |  |  |  | 
O/N=C1\C(=C\c2ccc3c(c2)OCCO3)CCCC1C(NO)c1ccc2c(c1)OCCO2 (stereo not given) | 49.2 | 71 | 32.3 | > 100 | 42.2 | > 100 | 39.6 | 98.4 | 29.6 | 51.3 |  |  |  |  |  |  |  |  |  | 
C[C@H]1CCC2C(OC(=O)[C@@H]2CN(C)C)[C@]2(C)C(=O)C=CC12O (stereo not given in full) | 23.6 | 7.18 | 16 | > 57.5 | 38.8 | 42.5 | 15 | 17.9 | 3.13 | 28.7 |  |  |  |  |  |  |  |  |  | 
O=C1CC2OCC=C3CN4CCC5(C(=O)O)C(N1)C2C3CC45 (stereo not given) | > 100 | > 100 | > 100 | > 100 | > 100 | > 100 | > 100 | > 100 | > 100 | > 100 |  |  |  |  |  |  |  |  |  | 
NC1=Nc2ccccc2Sc2ccccc21 | > 100 | > 100 | > 100 | > 100 | > 100 | > 100 | > 100 | > 100 | > 100 | > 100 |  |  |  |  |  |  |  |  |  | 
COc1ccc(/C=C2/CSC/C(=C/c3ccc(OC)c(OC)c3)C2=O)cc1OC | 16.9 | > 100 | 2.7 | 16.2 | 2.72 | 5.99 | 5.15 | 6.28 | 5.83 | 7.09 |  |  |  |  |  |  |  |  |  | 
C[C@@H]1Cc2c(ccc3[nH]ncc23)[C@@H](c2ccc(NC3CN(CCCF)C3)cn2)N1CC(F)(F)F | 38.3 | 43.4 | 43.2 | > 100 | 36.7 | 62.4 | 57.8 | 35.5 | 45.7 | 37.8 | 17.9 | 15.7 | 13.7 | 28.3 | 15.8 | 20.2 | 20.3 | 16.5 | 20.2 | 18.8
Cc1nc(-n2nc(-c3ccccc3)cc2-c2ccccc2)sc1C(=O)/C=C/c1cccc([N+](=O)[O-])c1 | 66.1 | 31.3 | 28.1 | 23.5 | 32.5 | 92.2 | 15.4 | 30.8 | 30.8 | 92 |  |  |  |  |  |  |  |  |  | 
